Reference: ChEMBL document CHEMBL1799917, “Isolation, sequencing, and structure-activity relationships of cyclotides” (J Nat Prod, 2010)
Activity calls are given as the source filed them. The calls are words filed in the database; no cut-off is given here. Where a SMILES comes first, the peptide text is derived from it. Bridges are numbered along the chain shown (N, C = ends).

How the values were obtained:
[1] = tested on: Helicoverpa armigera; assay: Insecticidal activity against Helicoverpa armigera assessed as growth inhibition; assay type: functional, organism-based
[2] = Hemolytic activity in human type A RBC assessed as hemolysis after 1 hr by microtitre plate; assay type: ADME, cell-based; details: Erythrocyte
[3] = Hemolytic activity in human type A RBC assessed as concentration required to cause 75% hemolysis after 1 hr by microtitre plate; assay type: ADME, cell-based; details: erythrocyte
[4] = tested on: Helicoverpa punctigera; assay: Insecticidal activity against Helicoverpa punctigera assessed as inhibition of development of larvae at 0.825 umol/g after 16 days; assay type: functional, organism-based
[5] = tested on: Human immunodeficiency virus 1; assay: Antiviral activity against HIV1 infected in human CEM-SS cells assessed as protection against virus-induced cytopathic effect by XTT method; assay type: functional, organism-based; details: Human immunodeficiency virus 1, CEM-SS
[6] = tested on: CEM-SS (Homo sapiens); assay: Cytotoxicity against human CEM-SS cells

CC[C@H](C)[C@@H]1NC(=O)[C@@H]2CCCN2C(=O)[C@H](Cc2c[nH]c3ccccc23)NC(=O)[C@H]([C@@H](C)O)NC(=O)[C@@H]2CSSC[C@@H]3NC(=O)[C@](C)([C@@H](C)O)NC(=O)[C@H](CCC(=O)O)NC(=O)CNC(=O)[C@@H]4CSSC[C@H](NC(=O)CNC(=O)[C@@H]5CCCN5C(=O)[C@H]([C@@H](C)O)NC(=O)[C@H](CC(N)=O)NC(=O)[C@H](CSSC[C@H](NC1=O)C(=O)N[C@@H]([C@@H](C)O)C(=O)N[C@@H](CCCNC(=N)N)C(=O)N[C@@H](CC(=O)O)C(=O)NCC(=O)N[C@@H](CC(C)C)C(=O)N1CCC[C@H]1C(=O)N[C@@H](C(C)C)C(=O)N4)NC(=O)[C@H]([C@@H](C)O)NC(=O)CNC(=O)CNC(=O)[C@H](Cc1ccccc1)NC3=O)C(=O)N[C@@H](CO)C(=O)N2
Activity [1]: Active

CC[C@H](C)[C@@H]1NC(=O)[C@H](C)NC(=O)[C@H](C)NC(=O)[C@H](CO)NC(=O)[C@H]([C@@H](C)CC)NC(=O)[C@@H]2CSSC[C@@H]3NC(=O)[C@H](C(C)C)NC(=O)[C@H](CCCCN)NC(=O)[C@H](CO)NC(=O)[C@H](CCCCN)NC(=O)[C@@H]4CSSC[C@H](NC(=O)[C@H](CO)NC(=O)[C@H](CCC(=O)O)NC(=O)CNC(=O)[C@H](CSSC[C@H](NC(=O)CNC1=O)C(=O)N[C@@H](CO)C(=O)N4)NC(=O)[C@@H]1CCCN1C(=O)[C@H]([C@@H](C)CC)NC(=O)CNC(=O)[C@H](CC(N)=O)NC(=O)[C@H](CCCNC(=N)N)NC(=O)[C@H](Cc1ccc(O)cc1)NC3=O)C(=O)N[C@@H](C(C)C)C(=O)N[C@@H](Cc1c[nH]c3ccccc13)C(=O)N[C@@H]([C@@H](C)CC)C(=O)N1CCC[C@H]1C(=O)N2 [CYCLOVIOLACIN O13] (cyclo(AAIGCSCKSKVCYRNGIPCGESCVWIPCIS); disulfide 5-19, 7-23, 12-28)
IC50 [2]: 11 µM

CC(C)C[C@@H]1NC(=O)CNC(=O)[C@H](CC(N)=O)NC(=O)[C@H](Cc2cnc[nH]2)NC(=O)[C@H]([C@@H](C)O)NC(=O)[C@@H]2CSSC[C@@H]3NC(=O)[C@H]([C@@H](C)O)NC(=O)CNC(=O)CNC(=O)[C@H](Cc4ccccc4)NC(=O)[C@@H]4CSSC[C@H](NC(=O)[C@H]([C@@H](C)O)NC(=O)[C@H](CSSC[C@H](NC(=O)[C@H]([C@@H](C)O)NC(=O)[C@@H]5CCCN5C1=O)C(=O)NCC(=O)N[C@@H](CCC(=O)O)C(=O)N[C@@H]([C@@H](C)O)C(=O)N4)NC(=O)CNC(=O)[C@@H]1CCCN1C(=O)[C@H]([C@@H](C)O)NC(=O)[C@H](CC(N)=O)NC3=O)C(=O)N[C@@H](CC(=O)O)C(=O)N1CCC[C@H]1C(=O)N[C@@H](Cc1c[nH]c3ccccc13)C(=O)N1CCC[C@H]1C(=O)N[C@@H](C(C)C)C(=O)N2 [CYCLOVIOLACIN O24] (cyclo(CDPWPVCTHNGLPTCGETCFGGTCNTPGCT); disulfide 1-19, 7-24, 15-29)
Activity [3]: 25 µM

CC(C)C[C@@H]1NC(=O)CNC(=O)[C@H](CC(N)=O)NC(=O)[C@H](CCCNC(=N)N)NC(=O)[C@H]([C@@H](C)O)NC(=O)[C@H](CS)NC(=O)[C@H](C(C)C)NC(=O)[C@@H]2CCCN2C(=O)[C@H](CCC(=O)O)NC(=O)[C@H](CO)NC(=O)[C@H](CS)NC(=O)[C@H]([C@@H](C)O)NC(=O)[C@H](CS)NC(=O)CNC(=O)[C@@H]2CCCN2C(=O)[C@H]([C@@H](C)O)NC(=O)[C@H](CC(N)=O)NC(=O)[C@H](CS)NC(=O)[C@H]([C@@H](C)O)NC(=O)CNC(=O)CNC(=O)[C@H](C(C)C)NC(=O)[C@H](CS)NC(=O)[C@H]([C@@H](C)O)NC(=O)[C@H](CCC(=O)O)NC(=O)CNC(=O)[C@H](CS)NC(=O)[C@H](C(C)C)NC(=O)[C@@H]2CCCN2C1=O [KALATA B1]
Activity [4]: Active

CC(C)C[C@@H]1NC(=O)[C@H](CC(C)C)NC(=O)[C@@H]2CSSC[C@@H]3NC(=O)[C@H]([C@@H](C)O)NC(=O)[C@@H]4CSSC[C@H](NC(=O)[C@H](CC(N)=O)NC(=O)[C@H](CC(C)C)NC(=O)[C@H](C(C)C)NC(=O)[C@H](CO)NC(=O)CNC(=O)[C@H](CC(=O)O)NC(=O)[C@H](CCCCN)NC(=O)[C@H]([C@@H](C)O)NC(=O)[C@H](CSSC[C@H](NC(=O)[C@H]([C@@H](C)O)NC(=O)CNC1=O)C(=O)N[C@@H](Cc1ccc(O)cc1)C(=O)N[C@@H]([C@@H](C)O)C(=O)N[C@@H]([C@@H](C)O)C(=O)NCC(=O)N4)NC(=O)[C@H](C(C)C)NC(=O)[C@H](CCCNC(=N)N)NC(=O)[C@H](Cc1ccc(O)cc1)NC(=O)[C@H](CCCCN)NC(=O)[C@H](CC(N)=O)NC3=O)C(=O)NCC(=O)N[C@@H](CCC(=O)O)C(=O)N[C@@H]([C@@H](C)O)C(=O)N2 [KALATA B8] (cyclo(CGETCLLGTCYTTGCTCNKYRVCTKDGSVLN); disulfide 1-15, 5-17, 10-23)
EC50 [5]: 2.5 µM
IC50 [6]: 3.5 µM
